Assay results taken from US20240024302A1, “SOLUBLE EPOXIDE HYDROLASE (sEH) INHIBITORS AND DUAL COX/sEH INHIBITORS FOR THE TREATMENT OF ARRHYTHMOGENIC CARDIOMYOPATHY” (BETH ISRAEL DEACONESS MEDICAL CENTER, INC., priority 2020, published 2024).

Test: Rat PK, single oral gavage
Type: in vivo
Settings: rat, in vivo, single dose 0.1 mg/kg

SMILES | Cmax [nM] | Tmax [h]
O=C(Nc1ccc(OC(F)(F)F)c(F)c1)NC1CCN(C(=O)C2(C(F)(F)F)CC2)CC1 | 41 ± 3 | 4.3 ± 0.4
O=C(Nc1ccc(OC(F)(F)F)c(F)c1)NC1CCN(C(=O)C2CCCOC2)CC1 (stereo not drawn) | 43 ± 3 | 2.6 ± 0.2
O=C(Nc1ccc(C(F)(F)F)cc1)NC1CCN(C(=O)C2CCOCC2)CC1 | 54 ± 3 | 2.5 ± 0.2
O=C(Nc1ccc(C(F)(F)F)c(F)c1)NC1CCN(C(=O)C2CCOCC2)CC1 | 139 ± 9 | 4 ± 0.4
CC[C@H](C)C(=O)N1CCC(NC(=O)Nc2ccc(OC(F)(F)F)c(OC(F)(F)F)c2)CC1 | 11 ± 1 | 2.5 ± 0.2
CC[C@H](C)C(=O)N1CCC(CC(=O)Nc2ccc(OC(F)(F)F)c(F)c2)CC1 | 3.6 ± 0.6 | 1.4 ± 0.1
O=C(Nc1ccc(C(F)(F)F)cc1)NC1CCN(C(=O)c2ccoc2)CC1 | 308 ± 16 | 3.4 ± 0.3
O=C(Nc1ccc(OC(F)(F)F)cc1)NC1CCN(C(=O)C2CCOCC2)CC1 | 23 ± 1 | 4.4 ± 0.2
O=C(Nc1ccc(OC(F)(F)F)c(F)c1)NC1CCN(C(=O)C2CCOCC2)CC1 | 103 ± 8 | 3.1 ± 0.2

Same assay, conditions: rat, in vivo, single dose 0.1 mg/kg, PEG 300

SMILES | AUC [µM·h]
O=C(Nc1ccc(OC(F)(F)F)c(F)c1)NC1CCN(C(=O)C2(C(F)(F)F)CC2)CC1 | 0.486 ± 0.087
O=C(Nc1ccc(OC(F)(F)F)c(F)c1)NC1CCN(C(=O)C2CCCOC2)CC1 (stereo not drawn) | 0.328 ± 0.018
O=C(Nc1ccc(C(F)(F)F)cc1)NC1CCN(C(=O)C2CCOCC2)CC1 | 0.391 ± 0.031
O=C(Nc1ccc(C(F)(F)F)c(F)c1)NC1CCN(C(=O)C2CCOCC2)CC1 | 1.65 ± 0.042
CC[C@H](C)C(=O)N1CCC(NC(=O)Nc2ccc(OC(F)(F)F)c(OC(F)(F)F)c2)CC1 | 0.075 ± 0.006
CC[C@H](C)C(=O)N1CCC(CC(=O)Nc2ccc(OC(F)(F)F)c(F)c2)CC1 | 0.016 ± 0.001
O=C(Nc1ccc(C(F)(F)F)cc1)NC1CCN(C(=O)c2ccoc2)CC1 | 3.55 ± 0.271
O=C(Nc1ccc(OC(F)(F)F)cc1)NC1CCN(C(=O)C2CCOCC2)CC1 | 0.234 ± 0.019
O=C(Nc1ccc(OC(F)(F)F)c(F)c1)NC1CCN(C(=O)C2CCOCC2)CC1 | 1.24 ± 0.063

Same assay, conditions: rat, in vivo, single dose 0.1 mg/kg, read-out: Rat T1/2 (converted)

SMILES | half-life [h]
O=C(Nc1ccc(OC(F)(F)F)c(F)c1)NC1CCN(C(=O)C2(C(F)(F)F)CC2)CC1 | 2.9 ± 0.3
O=C(Nc1ccc(OC(F)(F)F)c(F)c1)NC1CCN(C(=O)C2CCCOC2)CC1 (stereo not drawn) | 3.7 ± 0.5
O=C(Nc1ccc(C(F)(F)F)cc1)NC1CCN(C(=O)C2CCOCC2)CC1 | 3 ± 0.4
O=C(Nc1ccc(C(F)(F)F)c(F)c1)NC1CCN(C(=O)C2CCOCC2)CC1 | 4.5 ± 0.4
CC[C@H](C)C(=O)N1CCC(NC(=O)Nc2ccc(OC(F)(F)F)c(OC(F)(F)F)c2)CC1 | 2.3 ± 0.4
CC[C@H](C)C(=O)N1CCC(CC(=O)Nc2ccc(OC(F)(F)F)c(F)c2)CC1 | 0.9 ± 0.1
O=C(Nc1ccc(C(F)(F)F)cc1)NC1CCN(C(=O)c2ccoc2)CC1 | 4.4 ± 0.4
O=C(Nc1ccc(OC(F)(F)F)cc1)NC1CCN(C(=O)C2CCOCC2)CC1 | 3.7 ± 0.6
O=C(Nc1ccc(OC(F)(F)F)c(F)c1)NC1CCN(C(=O)C2CCOCC2)CC1 | 6.2 ± 0.4

Test: Mouse PK, single oral gavage
Settings: mouse, in vivo, po, 0.3 mg/kg, Mouse AUC, oral gavage, single dose 0.3 mg/kg, 20% PEG400 in oleic acid-rich triglyceride

SMILES | AUC [µM·h]
O=C(Nc1ccc(OC(F)(F)F)c(F)c1)NC1CCN(C(=O)C2(C(F)(F)F)CC2)CC1 | 0.0997 ± 0.0001
O=C(Nc1ccc(OC(F)(F)F)c(F)c1)NC1CCN(C(=O)C2CCCOC2)CC1 (stereo not drawn) | 0.0994 ± 0.0001
O=C(Nc1ccc(C(F)(F)F)cc1)NC1CCN(C(=O)C2CCOCC2)CC1 | 5.26
O=C(Nc1ccc(C(F)(F)F)c(F)c1)NC1CCN(C(=O)C2CCOCC2)CC1 | 0.0988 ± 0.0002
CC[C@H](C)C(=O)N1CCC(NC(=O)Nc2ccc(OC(F)(F)F)c(OC(F)(F)F)c2)CC1 | ≥ 0.0999
CC[C@H](C)C(=O)N1CCC(CC(=O)Nc2ccc(OC(F)(F)F)c(F)c2)CC1 | 0.0995 ± 0.0001
O=C(Nc1ccc(C(F)(F)F)cc1)NC1CCN(C(=O)c2ccoc2)CC1 | 0.794
O=C(Nc1ccc(OC(F)(F)F)cc1)NC1CCN(C(=O)C2CCOCC2)CC1 | 5.06
O=C(Nc1ccc(OC(F)(F)F)c(F)c1)NC1CCN(C(=O)C2CCOCC2)CC1 | 0.0985 ± 0.0001

Same assay, conditions: mouse, in vivo, po, 0.3 mg/kg, Mouse Cmax, oral gavage, single dose 0.3 mg/kg

SMILES | Cmax [nM]
O=C(Nc1ccc(OC(F)(F)F)c(F)c1)NC1CCN(C(=O)C2CCCOC2)CC1 (stereo not drawn) | 24700
O=C(Nc1ccc(C(F)(F)F)cc1)NC1CCN(C(=O)C2CCOCC2)CC1 | 376
O=C(Nc1ccc(C(F)(F)F)cc1)NC1CCN(C(=O)c2ccoc2)CC1 | 28
O=C(Nc1ccc(OC(F)(F)F)cc1)NC1CCN(C(=O)C2CCOCC2)CC1 | 460

Same assay, conditions: mouse, in vivo, po, 0.3 mg/kg, Mouse T1/2, oral gavage, single dose 0.3 mg/kg

SMILES | half-life [h]
O=C(Nc1ccc(OC(F)(F)F)c(F)c1)NC1CCN(C(=O)C2CCCOC2)CC1 (stereo not drawn) | 1050
O=C(Nc1ccc(C(F)(F)F)cc1)NC1CCN(C(=O)C2CCOCC2)CC1 | 3.6
O=C(Nc1ccc(C(F)(F)F)cc1)NC1CCN(C(=O)c2ccoc2)CC1 | 4.2
O=C(Nc1ccc(OC(F)(F)F)cc1)NC1CCN(C(=O)C2CCOCC2)CC1 | 2.8

Same assay, conditions: mouse, in vivo, po, 0.3 mg/kg, Mouse Tmax, oral gavage, single dose 0.3 mg/kg

SMILES | Tmax [h]
O=C(Nc1ccc(OC(F)(F)F)c(F)c1)NC1CCN(C(=O)C2CCCOC2)CC1 (stereo not drawn) | 6
O=C(Nc1ccc(C(F)(F)F)cc1)NC1CCN(C(=O)C2CCOCC2)CC1 | 5.2
O=C(Nc1ccc(C(F)(F)F)cc1)NC1CCN(C(=O)c2ccoc2)CC1 | 7.3
O=C(Nc1ccc(OC(F)(F)F)cc1)NC1CCN(C(=O)C2CCOCC2)CC1 | 4.1
